≈ marks a conversion by molar mass, not a printed value. Where a SMILES comes first, the peptide text is derived from it.
Legend:
[1] = test system: Candida strains (C. albicans, C. glabrata, C. krusei); assay: Anti-Candida assay, overall result in words; type: cell-based, Candida spp; conditions: standard culture conditions, broth culture medium
Description: (§1) Two Candida albicans isolates were purchased from the ATCC (No. 24433 and 76615). The other yeast isolates were obtained from the collection of Fondazione Ca' Granda- Ospedale Maggiore Policlinico, Milano. The collection included C. albicans (7 isolates), C. glabrata (3 isolates), and C. krusei (3 isolates). Antifungal susceptibility testing was performed using the broth microdilution method according to the NCCLS M27-A guidelines (National Committee for Clinical Laboratory Standards. 1997, Reference method for broth dilution antifungal susceptibility testing of yeasts and approved standard NCCLS document M27-A. National Committee for Clinical Laboratory Standards, Wayne, Pa.). […] After 48 h of incubation, the plates were inspected for purity. A colony was taken from the agar plate and transferred into 5 mL Sabouraud-dextrose broth and incubated for 48 h at 35°C. Cells were centrifuged at 1,000× g for 10 min and the pellet was washed twice with distilled water. Cells were counted and suspended in RPMI 1640 medium buffered to pH 7.0 with 0.165 mol l^−1 morpholinepropanesulphonic acid (MOPS) buffer (Sigma) to obtain the two times test inoculum (1×10^3 to 5×10^3 CFU/mL). […] The MIC90, i.e. the minimum inhibitory concentrations endpoint were determined as 90% reduction in turbidity measured using a spectrophotometer (Titertek multiscan at 690 nm wave length).

[2] = test system: HaCaT keratinocyte cell line; assay: Cytotoxic activity, MTT colorimetric method; type: cell-based, human; conditions: highest peptide concentration used (100 µM), 24 h
Description: Effects on viability was tested in the immortalised keratinocyte cell line HaCaT using the [3(4,5-dimethylthiazol-2yl)2,5-diphenyltetrazolium bromide] (MTT) colorimetric method in which the intensity of the dye is proportional to the number of viable cells. MTT is a tetrazolium salt which is reduced to a colored formazan product by mitochondrial reductases present only in metabolically active cells. Cells were cultured in Dulbecco's modified Eagle's medium (DMEM; Sigma) supplemented with 10% heat inactivated fetal bovine serum, glutamine (4 mM) and gentamicin. Afterwards, cells were plated in triplicate wells of a microtiter plate, at 4×10^4 cells/well in DMEM supplemented with 2% serum without antibiotic. After overnight incubation at 37°C in a 5% CO2 atmosphere, the medium was replaced with […] fresh DMEM supplemented with the peptides at different concentrations. The plate was incubated for 24 h at 37°C in a 5% CO2 atmosphere. Then, DMEM was removed and replaced with Hank's medium (136 mM NaCl; 4.2 mM Na2HPO4; 4.4 mM KH2PO4; 5.4 mM KCl; 4.1 mM NaHCO3, pH 7.2, supplemented with 20 mM D-glucose) containing 0.5 mg/ml MTT. After 4 h incubation, the formazan crystals were dissolved by adding 100 µl of acidified isopropanol and absorption of each well was measured using a microplate reader (Infinite M200; Tecan, Salzburg, Austria) at 570 nm. Cell viability was e expressed as percentage of viability in control cells (cells not treated with peptide).
Figure 1 Effects of the synthetic melanocortins on viability of HaCat cells. Cells were plated in wells of a microtiter plate, at 4×10^4 cells/well in DMEM supplemented with 2% serum without antibiotic. After overnight incubation at 37°C in a 5% CO2 atmosphere, the medium was replaced with 100 µl fresh DMEM supplemented with the peptides at different concentrations. […] Cell viability is expressed as percentage of viability in control cells (cells not treated with the peptide).

[3] = test system: Pseudomonas aeruginosa ATCC 27853; type: cell-based; conditions: ATCC 27853, 18 h
Description: (§2) The strains used for the antimicrobial assays were the Gram-negative bacteria Acinetobacter baumani ATCC 19606, Escherichia coli D21, Pseudomonas aeruginosa ATCC 27853, and Pseudomonas syringae pv tabaci 1918NCPPB and the Gram-positive bacteria Bacillus megaterium Bm11, Staphylococcus aureus ATCC 25923, and Staphylococcus epidermidis ATCC 12228. Susceptibility testing was performed by adapting the microbroth dilution method outlined by the Clinical and Laboratory Standards Institute, using sterile 96-well plates (Falcon NJ, USA). The bacterial growth was aseptically measured by absorbance at 590 nm with a spectrophotometer (UV-1700 Pharma Spec Shimadzu, Tokyo, Japan). Afterwards, aliquots (50 µl) of bacteria in mid-log phase at a concentration of 2×10^6 colony-forming units (CFU)/mL in culture medium (Mueller-Hinton, MH) were added to 50 µl of MH broth containing the peptide in serial 2-fold dilutions ranging from 1.56 to 100 µM. Inhibition of microbial growth was determined by measuring the absorbance at 590 nm, after an incubation of 18 h at 37°C with a microplate reader (Infinite M200; Tecan, Salzburg, Austria).

[4] = test system: Staphylococcus aureus ATCC 25923; type: cell-based; conditions: ATCC 25923, 18 h
Description: as §2

[5] = test system: Escherichia coli D21; type: cell-based; conditions: D21, 18 h
Description: as §2

[6] = test system: Pseudomonas syringae pv tabaci 1918NCPPB; type: cell-based; conditions: 18 h
Description: as §2

[7] = test system: Acinetobacter baumani ATCC 19606; type: cell-based; conditions: ATCC 19606, 18 h
Description: as §2

[8] = test system: Staphylococcus epidermidis ATCC 12228; type: cell-based; conditions: ATCC 12228, 18 h
Description: as §2

[9] = test system: Bacillus megaterium Bm11; type: cell-based; conditions: Bacillus Bm11, 18 h
Description: as §2

[10] = test system: C. krusei; type: cell-based, Candida krusei; conditions: 48 h
Description: as §1

[11] = test system: C. glabrata; type: cell-based, Candida glabrata; conditions: 48 h
Description: as §1

[12] = test system: C. albicans; type: cell-based, Candida albicans; conditions: 48 h
Description: as §1

[13] = test system: Candida; set-up: method as in PMID 15743181; conditions: cited from earlier work

Compound	antimicrobial / anti-Candida activity (in words) [1]	cell death / killing of human keratinocytes [2]	MIC 100 [3]	MIC 100 [4]	MIC 100 [5]	MIC 100 [6]	MIC 100 [7]	MIC 100 [8]	MIC 100 [9]	MIC 90 [10]	MIC 90 [11]	MIC 90 [12]	killing of Candida (in words) ([13]; in growth medium ref 7)	Candida organisms killed ([13]; organisms incubated in distilled water ref 7)
CC(C)[C@H](NC(=O)[C@H](Cc1ccccc1)NC(=O)[C@H](CCCCN)NC(=O)[C@@H](NC(=O)[C@H](Cc1c[nH]c2ccccc12)NC(=O)[C@H](CCCNC(=N)N)NC(=O)[C@@H](Cc1ccc2ccccc2c1)NC(=O)[C@@H](N)Cc1c[nH]cn1)C(C)(C)C)C(N)=O [Peptide 3, H-His-D(2′)Nal-Arg-Trp-tBuGly-Lys-Phe-Val-NH2] (HELM PEPTIDE1{H.[O=C([C@@H](Cc1ccc2ccccc2c1)N[*:1])[*:2]].R.W.[CC(C)(C)[C@H](N[*:1])C(=O)[*:2]].K.F.V.[am]}$$$$V2.0)	inactive	less than 30%	50 µM (≈ 59.1 µg/mL)	>100 µM	50 µM (≈ 59.1 µg/mL)	>100 µM	100 µM (≈ 118 µg/mL)	50 µM (≈ 59.1 µg/mL)	6.25 µM (≈ 7.38 µg/mL)	>100 µM	>100 µM	>100 µM	–	–
CC(C)[C@H](NC(=O)[C@H](Cc1ccccc1)NC(=O)[C@H](CCCCN)NC(=O)CNC(=O)[C@H](Cc1c[nH]c2ccccc12)NC(=O)[C@H](CCCNC(=N)N)NC(=O)[C@@H](Cc1ccc2ccccc2c1)NC(=O)[C@@H](N)Cc1c[nH]cn1)C(N)=O [DNal, H-His-D(2′)Nal-Arg-Trp-Gly-Lys-Phe-Val-NH2, reference compound] (HELM PEPTIDE1{H.[O=C([C@@H](Cc1ccc2ccccc2c1)N[*:1])[*:2]].R.W.G.K.F.V.[am]}$$$$V2.0)	did not have substantial antimicrobial activity	50–100%	100 µM (≈ 113 µg/mL)	>100 µM	>100 µM	>100 µM	>100 µM	50 µM (≈ 56.3 µg/mL)	6 µM (≈ 6.75 µg/mL)	>100 µM	>100 µM	>100 µM	did not kill	100%
